Consider 42 compounds from patent publication US20160222014A1, “COMPOUNDS FOR REGULATING FAK AND/OR SRC PATHWAYS” (ASANA BIOSCIENCES, LLC, priority 2013, published 2016).

Common to all, as to format: biochemical
The target of one assay is T1, recombinant human FAK1 (Homo sapiens, UniProt Q05397).
T1 construct: fused on or other part: N-terminal 6xHis tag
Put plainly: FAK1 HTRF assay. Put shortly:
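IC50 values derive from HTRF % inhibition (ratio 665/620 nm, Eu–anti-phosphotyrosine 0.1 nM, SA-APC 12 nM). The kinase step ran 45 min at room temperature, pairing 10 nM His-FAK1(692–end) from baculovirus with 0.5 μM gastrin Tyr87 biotin-peptide and a reagent at 10 μM final, pH 7.4. Compound dilutions began at 10 μM.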

For the next assay, the target named is T2, Recombinant Src enzyme (Homo sapiens, UniProt P12931).
T2 construct: purchased Millipore 14-326; host or cells: Sf21 insect cells
Put plainly: Src HTRF assay. As for the experimental part: Enzyme assay buffer, supplements, and compounds were prepared as described in the FAK HTRF assay.
Recombinant Src enzyme expressed in Sf21 insect cells was obtained (Millipore, Cat No. 14-326, Lot # D8CN006U-K). A 35 μM stock was used at a final concentration of 5 nM in the assay.
Tyk2 synthetic peptide-Biotinylated-N-terminal tag-[…]
A custom made substrate, a Tyk2 synthetic peptide, biotinylated with an N-terminal tag was obtained (Biopeptide and Sigma, Cat. No. 14918001 VC80021). A 100 μM stock was used at a final concentration of 0.5 μM in the assay.
A 10 mM stock in 100 μL enzyme assay buffer pH7.4 was prepared freshly and used at a final concentration of 10 μM in the assay.
Dasatinib (Bristol-Myers Squibb)
The assay procedure was the same as discussed above.

The target in the next assay is T3, AURKB (Aurora B) enzyme (Homo sapiens, UniProt Q96GD4).
T3 construct: purchased Invitrogen PVR 130
The assay can be described thus: Aurora B HTRF assay. As to conditions: read-out: AuroraB IC50. As for the experimental part:
AURKB (Aurora B) enzyme was obtained (Invitrogen, Cat No. PVR 130, Lot No. 857013J). A 8.64 μM stock was used at a final concentration 5 nM in the assay.
Lance@Ultera Ulight-PLK (Ser137) peptide substrate
Peptide substrate was obtained from Perkin Elmer (Lot#1629793, TRF0110-M). A 5 μM stock was used at a final concentration of 50 nM in the assay.
10 mM stock prepared freshly as above, used at a final concentration of 30 μM in assay.
The plate was covered with aluminum foil, put on a shaker and incubated 1 h at rt.
Reference: Pfizer aurora inhibitor PF-03814735 was procured from Selleckchem: Cat# S2725
Using stock Lance detection buffer, 1× Lance detection buffer was prepared. • 1. 10× lance detection buffer was diluted to 1×, mixed well and 100 μL was removed, and was used to substitute with antibody and EDTA (for a total of 2200 μL). • 2. 88 μL of […] EDTA was added from 500 mM stock. • 3. 14 μL Europium labeled antibody (LANCE@ Ultra EU-Anti-P-PLK(Ser 137), TRF0203-D, Lot No. 1630351, Perkin Elmer) was added from 625 nM stock; required concentration was 2 nM in the assay. • 4. The buffer well was mixed and 20 μL was transferred to the each well in the assay plate. • 5. The solutions were incubated for 1 h at rt. • 6. The plate was read using MET-HTRF® protocol using Pherastar equipment.

Bounds are passed on as bounds.

T1 sequence (Q05397 422-680 limits assumed): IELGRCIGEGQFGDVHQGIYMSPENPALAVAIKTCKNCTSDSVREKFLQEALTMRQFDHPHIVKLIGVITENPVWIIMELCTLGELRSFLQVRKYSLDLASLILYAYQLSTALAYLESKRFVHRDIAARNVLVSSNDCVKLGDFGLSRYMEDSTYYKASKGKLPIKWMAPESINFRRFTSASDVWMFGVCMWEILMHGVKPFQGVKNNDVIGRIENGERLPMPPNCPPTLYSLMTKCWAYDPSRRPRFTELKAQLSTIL
T2 sequence (P12931 whole entry): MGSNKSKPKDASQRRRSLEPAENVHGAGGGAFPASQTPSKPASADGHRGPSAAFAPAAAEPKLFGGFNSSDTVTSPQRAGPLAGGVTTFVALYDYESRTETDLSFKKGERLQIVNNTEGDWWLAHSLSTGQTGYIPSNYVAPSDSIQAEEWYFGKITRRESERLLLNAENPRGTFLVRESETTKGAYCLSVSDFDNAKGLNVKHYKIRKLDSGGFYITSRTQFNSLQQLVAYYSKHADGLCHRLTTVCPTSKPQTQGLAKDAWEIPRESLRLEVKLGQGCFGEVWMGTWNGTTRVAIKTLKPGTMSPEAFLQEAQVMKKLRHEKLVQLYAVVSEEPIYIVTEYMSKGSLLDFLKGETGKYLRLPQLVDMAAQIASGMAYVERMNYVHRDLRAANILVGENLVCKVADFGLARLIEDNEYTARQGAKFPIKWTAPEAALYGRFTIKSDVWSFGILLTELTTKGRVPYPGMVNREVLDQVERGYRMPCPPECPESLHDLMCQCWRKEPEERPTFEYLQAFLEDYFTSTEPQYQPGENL
T3 sequence (Q96GD4 whole entry): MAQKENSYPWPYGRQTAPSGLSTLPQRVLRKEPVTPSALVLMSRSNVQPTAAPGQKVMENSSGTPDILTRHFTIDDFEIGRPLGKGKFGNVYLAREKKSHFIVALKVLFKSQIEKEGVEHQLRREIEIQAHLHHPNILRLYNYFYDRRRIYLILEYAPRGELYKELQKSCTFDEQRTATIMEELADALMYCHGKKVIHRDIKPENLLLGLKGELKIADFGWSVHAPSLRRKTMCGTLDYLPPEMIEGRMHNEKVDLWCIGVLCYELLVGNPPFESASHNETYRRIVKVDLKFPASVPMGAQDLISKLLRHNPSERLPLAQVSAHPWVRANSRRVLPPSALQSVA

As for `CN(c1ncccc1Cn1cc(C(N)=O)c2cnc(Nc3ccc(N4CCNCC4)cc3)nc21)S(C)(=O)=O` [Example 734], the IC50 at recombinant human FAK1 and on Recombinant Src enzyme was more than 1 µM throughout.

In the case of `CN(c1ncccc1Cn1cc2cnc(Nc3ccc4c(c3)CCC(=O)N4)nc2n1)S(C)(=O)=O` [Example 190], the IC50 at recombinant human FAK1 and at Recombinant Src enzyme was more than 1 µM each time.

On to `CNS(=O)(=O)c1cccc(Cn2ccc3cnc(Nc4ccc5c(c4)CCC(=O)N5)nc32)c1` [Example 60], for which the IC50 on Recombinant Src enzyme was more than 1 µM; at AURKB (Aurora B) enzyme, less than 0.02 µM.

For `Cc1ccc(N(C)S(C)(=O)=O)c(Cn2ccc3cnc(Nc4ccc5c(c4)CC(=O)N5)nc32)c1` [Example 786], the IC50 on recombinant human FAK1 was less than 0.02 µM; at Recombinant Src enzyme, more than 1 µM.

As for `CC1(C)CN(S(=O)(=O)c2ccccc2C#N)c2cc(Nc3ccc(N4CCNCC4)cc3)ncc21` [Example 532], the IC50 on Recombinant Src enzyme and on AURKB (Aurora B) enzyme was more than 1 µM in each case.

Consider `O=S(=O)(c1cccc2cccnc12)n1ncc2cnc(Nc3ccc(N4CC5CC4CN5)cc3)cc21` (stereo not drawn) [Example 383], for which the IC50 on Recombinant Src enzyme was more than 1 µM; on AURKB (Aurora B) enzyme, less than 0.02 µM.

Consider `CC(=O)N(C)c1ccccc1Cn1ccc2cnc(Nc3ccc(N4CCC(N(C)C)CC4)cc3)nc21` [Example 788], for which the IC50 on recombinant human FAK1 and at Recombinant Src enzyme was more than 1 µM in each case.

For `O=S(=O)(c1cccc2cccnc12)n1ccc2cnc(Nc3ccc(N4CCNCC4)cc3Cl)nc21` [Example 418], the IC50 was less than 0.02 µM on recombinant human FAK1 and more than 1 µM at Recombinant Src enzyme.

On to `CN(C)C1CCN(c2ccc(Nc3ncc4c(n3)N(c3ccccc3NS(C)(=O)=O)CC4(C)C)cc2)CC1` [Example 784], for which the IC50 on recombinant human FAK1 and on Recombinant Src enzyme was more than 1 µM throughout.

In the case of `N#Cc1ccccc1S(=O)(=O)n1ccc2cnc(Nc3ccc(N4CCC(O)CC4)cc3)cc21` [Example 414], the IC50 at recombinant human FAK1 was less than 0.02 µM; on Recombinant Src enzyme, more than 1 µM.

Turning to `C[C@H]1CN(c2ccc(Nc3ncc4ccn(Cc5ccccc5NS(=O)(=O)CCCF)c4n3)c(F)c2)CCN1` [Example 729], the IC50 on recombinant human FAK1 and at Recombinant Src enzyme was more than 1 µM throughout.

As to `CC1(C)CN(c2ccccn2)c2nc(Nc3ccc4[nH]cc(C5=CCNCC5)c4c3)ncc21` [Example 713], the results for the IC50 on recombinant human FAK1 and on Recombinant Src enzyme were less than 0.02 µM and more than 1 µM, respectively.

For the compound `CN(c1ccccc1Cn1ccc2cnc(Nc3ccc(N4CCOCC4)cc3)cc21)S(C)(=O)=O` [Example 385], the IC50 is less than 0.02 µM at recombinant human FAK1 and more than 1 µM on Recombinant Src enzyme.

Consider `O=C1CCc2cc(Nc3ncc4ccn(S(=O)(=O)c5cccc(OC(F)(F)F)c5)c4n3)ccc2N1` [Example 45], for which the IC50 at recombinant human FAK1 and on Recombinant Src enzyme was more than 1 µM in each case.

For `O=S(=O)(c1cccc2cccnc12)n1ccc2cnc(Nc3ccc(N4CCNCC4)cc3OC3CCC3)cc21` [Example 362], the IC50 at recombinant human FAK1 and at Recombinant Src enzyme was more than 1 µM throughout.

As for `COc1cc(N2CCNCC2)ccc1Nc1cc2c(ccn2Cc2cccnc2N(C)S(C)(=O)=O)cn1` [Example 366], the IC50 at Recombinant Src enzyme and on AURKB (Aurora B) enzyme was more than 1 µM throughout.

On to `COc1cc(N2CCN(C)CC2)ccc1Nc1ncc2ccn(Cc3ccccc3N(C)S(C)(=O)=O)c2n1` [Example 424], for which the values for the IC50 at recombinant human FAK1 and at Recombinant Src enzyme were less than 0.02 µM and more than 1 µM, respectively.

In the case of `COc1cccc(Nc2ncc3ccn(Cc4ccccc4N(CCN4CCNCC4)S(C)(=O)=O)c3n2)c1` [Example 583], the 50% inhibitory concentration (IC50) on recombinant human FAK1 and on Recombinant Src enzyme was more than 1 µM in each case.

On to `CN(c1ncccc1Cn1ccc2cnc(Nc3ccc(N4CCNCC4=O)cc3)nc21)S(C)(=O)=O` [Example 102], for which the IC50 at Recombinant Src enzyme was more than 1 µM; at AURKB (Aurora B) enzyme, less than 0.02 µM.

Turning to `CC(=O)Nc1ccc(S(=O)(=O)n2ccc3cnc(Nc4ccc(CC#N)cc4)nc32)cc1` [Example 183], the half-maximal inhibitory concentration (IC50) on recombinant human FAK1 and on Recombinant Src enzyme was more than 1 µM each time.

Take `C[C@H]1CN(c2ccc(Nc3ncc4ccn(Cc5cccnc5N(C)S(C)(=O)=O)c4n3)nc2)CCN1` [Example 585, (S)—N-methyl-N-(3-((2-((5-(3-methylpiperazin-1-yl)pyridin-2-yl)amino)-7H-pyrrolo[2,3-d]pyrimidin-7-yl)methyl)pyridin-2-yl)methanesulfonamide]: the IC50 at recombinant human FAK1 and on Recombinant Src enzyme was more than 1 µM throughout.

For `COc1cc(N2CCC(OC)CC2)ccc1Nc1cc2c(ccn2S(=O)(=O)c2cccc3cccnc23)cn1` [Example 430], the IC50 on recombinant human FAK1 was less than 0.02 µM; at Recombinant Src enzyme, more than 1 µM.

For the compound `CN(c1ncccc1Cn1ccc2cnc(Nc3ncccn3)nc21)S(C)(=O)=O` [Example 227], the IC50 at recombinant human FAK1 and at Recombinant Src enzyme was more than 1 µM each time.

On to `O=C1CCc2cc(Nc3ncc4ccn(S(=O)(=O)c5cccc6ccccc56)c4n3)ccc2N1` [Example 223], for which the IC50 on recombinant human FAK1 and on Recombinant Src enzyme was less than 0.02 µM in each case.

Regarding `COc1cc(N2CCN(C)CC2)ccc1Nc1cc2c(ccn2S(=O)(=O)c2ccccc2C#N)cn1` [Example 493], the IC50 on recombinant human FAK1 is less than 0.02 µM; at Recombinant Src enzyme it was more than 1 µM.

With `CN(C)C1CCN(c2ccc(Nc3nc4c(ccn4Cc4cccnc4N(C)S(C)(=O)=O)cc3C#N)cc2)CC1` [Example 785], the IC50 on recombinant human FAK1 and on Recombinant Src enzyme was more than 1 µM each time.

Take `CN(c1ccccc1Cn1ccc2cnc(Nc3ccc(N4CCN5CCCC5C4)cc3)nc21)S(C)(=O)=O` (stereo not drawn) [Example 496]: the IC50 at recombinant human FAK1 and at Recombinant Src enzyme was less than 0.02 µM in each case.

In the case of `CN(C)C1CCN(c2ccc(Nc3cc4c(cn3)C(C)(C)CN4S(=O)(=O)c3cccc4cccnc34)cc2)CC1` [Example 611], the IC50 is less than 0.02 µM at recombinant human FAK1 and more than 1 µM on Recombinant Src enzyme.

As for `N#Cc1ccccc1Nc1ncc2ccn(S(=O)(=O)c3cccc4cccnc34)c2n1` [Example 359], the IC50 on recombinant human FAK1 is less than 0.02 µM; at Recombinant Src enzyme, more than 1 µM.

For the compound `Cc1cc(Nc2cc3c(cn2)cnn3S(=O)(=O)c2cccc3cccnc23)ccc1N1CCOCC1` [Example 374], the figures for the IC50 on recombinant human FAK1 and on Recombinant Src enzyme were less than 0.02 µM and more than 1 µM, respectively.

As to `COc1cc(N2CCNCC2)ccc1Nc1ncc2ccn(S(=O)(=O)c3cc(C)cc4cccnc34)c2n1` [Example 360], the IC50 at recombinant human FAK1 was less than 0.02 µM; on Recombinant Src enzyme, more than 1 µM.

On to `CN(c1ncccc1Cn1cc(C#N)c2cnc(Nc3ccc(N4CCNCC4)cc3)nc21)S(C)(=O)=O` [Example 732], for which the IC50 on recombinant human FAK1 and at Recombinant Src enzyme was more than 1 µM in each case.

With `C[C@H]1CN(c2ccc(Nc3ncc4ccn(Cc5ccccc5N(C)S(C)(=O)=O)c4n3)cc2)CCN1C` [Example 491], the IC50 on recombinant human FAK1 and on Recombinant Src enzyme was less than 0.02 µM each time.

Regarding `O=C1CCc2cc(Nc3ncc4cnn(S(=O)(=O)c5cccc6cccnc56)c4n3)ccc2N1` [Example 228], the IC50 on recombinant human FAK1 and at Recombinant Src enzyme was less than 0.02 µM each time.

In the case of `Cc1cc(Nc2ncc3ccn(Cc4ccccc4N(C)S(C)(=O)=O)c3n2)ccc1N1CCNCC1` [Example 447], the IC50 at recombinant human FAK1 and on Recombinant Src enzyme was less than 0.02 µM throughout.

`COc1cc(N2CCC(O)CC2)ccc1Nc1cc2c(cn1)cnn2S(=O)(=O)c1cccc2cccnc12` [Example 396]: the IC50 on recombinant human FAK1 is less than 0.02 µM; at Recombinant Src enzyme it was more than 1 µM.

For the compound `CC(=O)N(C)c1ccccc1Cn1ccc2cnc(Nc3ccc(N4CCN[C@H](C)C4)cc3)nc21` [Example 787], the IC50 at recombinant human FAK1 and at Recombinant Src enzyme was more than 1 µM each time.

As to `C[C@H]1CN(c2ccc(Nc3ncc4ccn(Cc5ccccc5N(C)S(=O)(=O)CCCF)c4n3)c(F)c2)CCN1` [Example 730], the IC50 on recombinant human FAK1 and on Recombinant Src enzyme was more than 1 µM in each case.

Consider `COc1ccccc1S(=O)(=O)n1ccc2cnc(Nc3cncnc3)nc21` [Example 146], for which the IC50 at recombinant human FAK1 and at Recombinant Src enzyme was more than 1 µM in each case.

As to `CN(c1ncccc1Cn1ccc2cnc(Nc3ccc4c(c3)NC(=O)CC4)nc21)S(C)(=O)=O` [Example 209], the IC50 at recombinant human FAK1 and at Recombinant Src enzyme was less than 0.02 µM each time.

On to `COc1cc(N2CCC(N(C)C)CC2)ccc1Nc1ncc2c(n1)N(S(=O)(=O)c1cccc3cccnc13)CC2(C)C` [Example 650], for which the IC50 on recombinant human FAK1 was less than 0.02 µM; at Recombinant Src enzyme, more than 1 µM.

Turning to `COc1cc(N2CCN(C)CC2)ccc1Nc1cc2c(ccn2S(=O)(=O)c2cccc3cccnc23)cn1` [Example 407], the values for the IC50 at recombinant human FAK1 and on Recombinant Src enzyme were less than 0.02 µM and more than 1 µM, respectively.
